{"source": "patent US9255100B2", "about": "(BAYER INTELLECTUAL PROPERTY GMBH, priority 2010, dated 2016)"}
{"molecular_target": "T1, N-terminally GST-tagged human full length recombinant Mps-1 kinase (Homo sapiens, UniProt P33981)", "T1 construct": "N-terminally GST-tagged human full length recombinant Mps-1 kinase; purchased Invitrogen, Karslruhe, Germany PV4071", "T1 sequence (P33981 1-857)": "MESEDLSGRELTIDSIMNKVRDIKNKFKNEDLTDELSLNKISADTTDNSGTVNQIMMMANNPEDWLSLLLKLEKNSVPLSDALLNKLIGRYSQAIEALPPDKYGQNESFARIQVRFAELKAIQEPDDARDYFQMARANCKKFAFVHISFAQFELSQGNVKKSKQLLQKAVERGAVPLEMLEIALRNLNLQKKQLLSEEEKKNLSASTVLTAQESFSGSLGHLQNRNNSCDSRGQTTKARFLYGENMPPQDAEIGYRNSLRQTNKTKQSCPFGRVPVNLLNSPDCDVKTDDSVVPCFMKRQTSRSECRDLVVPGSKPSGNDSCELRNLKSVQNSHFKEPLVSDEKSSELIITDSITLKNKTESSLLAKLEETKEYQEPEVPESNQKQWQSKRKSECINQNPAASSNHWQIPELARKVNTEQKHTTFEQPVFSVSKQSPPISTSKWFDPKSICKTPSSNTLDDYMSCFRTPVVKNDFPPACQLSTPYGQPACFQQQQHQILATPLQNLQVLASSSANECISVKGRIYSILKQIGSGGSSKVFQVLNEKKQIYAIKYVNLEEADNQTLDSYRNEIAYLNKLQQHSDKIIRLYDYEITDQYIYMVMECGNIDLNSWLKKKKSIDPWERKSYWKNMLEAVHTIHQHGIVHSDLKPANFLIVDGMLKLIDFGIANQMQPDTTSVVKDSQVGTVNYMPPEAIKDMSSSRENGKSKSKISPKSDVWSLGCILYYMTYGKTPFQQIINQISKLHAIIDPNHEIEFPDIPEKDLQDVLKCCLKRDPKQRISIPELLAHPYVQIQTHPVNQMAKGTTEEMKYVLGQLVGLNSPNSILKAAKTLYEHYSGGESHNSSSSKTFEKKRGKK", "assay": "Mps-1 kinase assay (TR-FRET)", "assay_type": "biochemical", "details": "Mps1 IC50 [nM], 10 μM ATP, 1 μM peptide substrate, 60 min at 22° C.", "how_it_was_run": "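GST-Mps-1 (full length, N-term tag) ~1 nM final, linear-range adjusted per lot; biotinylated peptide substrate. Detection: Eu-anti-pSer/Thr donor → SA-XLent acceptor TR-FRET, 1 h, 22° C. Inhibition of kinase activity.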", "units": {"IC50": "nM"}}
{"smiles": "Cc1cc(-c2cnc3c(NCCC(F)(F)F)cc(Oc4cccc5c4CCN(C)C5)nn23)ccc1C(=O)NC1CC1", "note": "[Example 469, N-cyclopropyl-2-methyl-4-{6-[(2-methyl-1,2,3,4-tetrahydroisoquinolin-5-yl)oxy]-8-[(3,3,3-trifluoropropyl)amino]imidazo[1,2-b]pyridazin-3-yl}benzamide]", "IC50": 1.7}
{"smiles": "Cc1cccc(Oc2cc(NCCC(F)(F)F)c3ncc(-c4ccc(C(=O)NC5CC5)c(C)c4)n3n2)c1", "note": "[Example 470, N-cyclopropyl-2-methyl-4-{6-(3-methylphenoxy)-8-[(3,3,3-trifluoro-propyl)amino]imidazo [1,2-b]pyridazin-3-yl} benzamide]", "IC50": 0.4}
{"smiles": "COc1ccc(Oc2cc(NCCC(F)(F)F)c3ncc(-c4ccc(C(=O)NC5CC5)c(C)c4)n3n2)cc1", "note": "[Example 471, N-cyclopropyl-4-{6-(4-methoxyphenoxy)-8-[(3,3,3-trifluoropropyl)amino]imidazo[1,2-b]pyridazin-3-yl}-2-methylbenzamide]", "IC50": 0.2}
{"smiles": "Cc1cc(-c2cnc3c(NCCC(F)(F)F)cc(Oc4ccc(F)cc4)nn23)ccc1C(=O)NC1CC1", "note": "[Example 472, N-cyclopropyl-4-{6-(4-fluorophenoxy)-8-[(3,3,3-trifluoropropyl)amino]imidazo[1,2-b]pyridazin-3-yl}-2-methyl-benzamide]", "IC50": 0.2}
{"smiles": "Cc1cc(-c2cnc3c(NCCC(F)(F)F)cc(Oc4ccccc4F)nn23)ccc1C(=O)NC1CC1", "note": "[Example 473, N-cyclopropyl-4-{6-(2-fluorophenoxy)-8-[(3,3,3-trifluoropropyl)amino]imidazo[1,2-b]pyridazin-3-yl}-2-methyl-benzamide]", "IC50": 0.4}
{"smiles": "Cc1ccccc1Oc1cc(NCCC(F)(F)F)c2ncc(-c3ccc(C(=O)NC4CC4)c(C)c3)n2n1", "note": "[Example 474, N-cyclopropyl-2-methyl-4-{6-(2-methylphenoxy)-8-[(3,3,3-trifluoro-propyl)amino]imidazo [1,2-b]pyridazin-3-yl} benzamide]", "IC50": 0.3}
{"smiles": "COc1ccc(Oc2cc(NCCC(F)(F)F)c3ncc(-c4ccc(C(=O)NC5CC5)c(C)c4)n3n2)cc1F", "note": "[Example 475, N-cyclopropyl-4-{6-(3-fluoro-4-methoxy-phenoxy)-8-[(3,3,3-tri-fluoropropyl)amino]imidazo[1,2-b]pyridazin-3-yl}-2-methylbenzamide]", "IC50": 0.2}
{"smiles": "CC(=O)Nc1ccncc1Oc1cc(NCCC(F)(F)F)c2ncc(-c3ccc(C(=O)NC4CC4)c(C)c3)n2n1", "note": "[Example 476, 4-(6-{[4-(acetylamino)pyridin-3-yl]oxy}-8-[(3,3,3-trifluoropropyl)amino]imidazo[1,2-b]pyridazin-3-yl)-N-cyclo-propyl-2-methyl-benzamide]", "IC50": 10.3}
{"smiles": "Cc1cc(-c2cnc3c(NCCC(F)(F)F)cc(Oc4cccc(F)c4N)nn23)ccc1C(=O)NC1CC1", "note": "[Example 477, 4-{6-(2-amino-3-fluoro-phenoxy)-8-[(3,3,3-tri-fluoropropyl)amino]imidazo[1,2-b]pyridazin-3-yl}-N-cyclopropyl-2-methylbenzamide]", "IC50": 0.3}
{"smiles": "Cc1cc(-c2cnc3c(NCCC(F)(F)F)cc(Nc4c(O)cccc4F)nn23)ccc1C(=O)NC1CC1", "note": "[Example 478, N-cyclopropyl-4-{6-[(2-fluoro-6-hydroxyphenyl)amino]-8-[(3,3,3-tri-fluoropropyl)amino]imidazo[1,2-b]pyridazin-3-yl}-2-methylbenzamide]", "IC50": 0.3}
{"smiles": "Cc1ccc(Oc2cc(NCCC(F)(F)F)c3ncc(-c4ccc(C(=O)NC5CC5)c(C)c4)n3n2)cc1", "note": "[Example 479, N-cyclopropyl-2-methyl-4-{6-(4-methylphenoxy)-8-[(3,3,3-trifluoro-propyl)amino]imidazo [1,2-b]pyridazin-3-yl} benzamide]", "IC50": 0.2}
{"smiles": "Cc1cc(-c2cnc3c(NCCC(F)(F)F)cc(Nc4ccncc4O)nn23)ccc1C(=O)NC1CC1", "note": "[Example 481, N-cyclopropyl-4-{6-[(3-hydroxypyridin-4-yl)amino]-8-[(3,3,3-tri-fluoropropyl)amino]imidazo[1,2-b]pyridazin-3-yl}-2-methylbenzamide]", "IC50": 3.1}
{"smiles": "C=C(c1ccccc1)c1cc(NCCC(F)(F)F)c2ncc(-c3ccc(C(=O)NC4CC4)c(C)c3)n2n1", "note": "[Example 482, N-cyclopropyl-2-methyl-4-{6-(1-phenylethenyl)-8-[(3,3,3-trifluoropropyl)amino]imidazo[1,2-b]pyridazin-3-yl}benzamide]", "IC50": 0.6}
{"smiles": "COc1ccc(Cc2cc(NCCC(F)(F)F)c3ncc(-c4ccc(C(=O)NC5CC5)c(C)c4)n3n2)cc1F", "note": "[Example 483, N-cyclopropyl-4-{6-(3-fluoro-4-methoxybenzyl)-8-[(3,3,3-tri-fluoropropyl)amino]imidazo [1,2-b]pyridazin-3-yl}-2-methylbenzamide]", "IC50": 0.1}
{"smiles": "Cc1ccc(Cc2cc(NCCC(F)(F)F)c3ncc(-c4ccc(C(=O)NC5CC5)c(C)c4)n3n2)cc1F", "note": "[Example 484, N-cyclopropyl-4-{6-(3-fluoro-4-methylbenzyl)-8-[(3,3,3-tri-fluoropropyl)amino]imidazo [1,2-b]pyridazin-3-yl}-2-methylbenzamide]", "IC50": 0.3}
{"smiles": "Cc1cc(-c2cnc3c(NCCC(F)(F)F)cc(Cc4cccc(Br)c4)nn23)ccc1C(=O)NC1CC1", "note": "[Example 485, 4-{6-(3-bromobenzyl)-8-[(3,3,3-trifluoropropyl)amino]imidazo [1,2-b]pyridazin-3-yl}-N-cyclo-propyl-2-methylbenzamide]", "IC50": 0.4}
{"smiles": "Cc1cc(-c2cnc3c(NCC(O)C(F)(F)F)cc(Oc4cccc(F)c4)nn23)ccc1C(=O)NC1CC1", "note": "(centres unmarked) [Example 486, N-cyclopropyl-4-{6-(3-fluorophenoxy)-8-[(3,3,3-trifluoro-2-hydroxypropyl)amino]imidazo[1,2-b]pyridazin-3-yl}-2-methylbenzamide]", "IC50": 0.1}
{"smiles": "Cc1cc(-c2cnc3c(NCCN(C)C)cc(Oc4cccc(F)c4)nn23)ccc1C(=O)NC1CC1", "note": "[Example 487, N-cyclopropyl-4-[8-{[2-(dimethylamino)ethyl]amino}-6-(3-fluorophenoxy)imidazo [1,2-b]pyridazin-3-yl]-2-methylbenzamide]", "IC50": 0.1}
{"smiles": "Cc1cc(-c2cnc3c(NCc4ccn(C)n4)cc(Oc4cccc(F)c4)nn23)ccc1C(=O)NC1CC1", "note": "[Example 488, N-cyclopropyl-4-[6-(3-fluoro-phenoxy)-8-{[(1-methyl-1H-pyrazol-3-yl)methyl]amino}imidazo[1,2-b]pyridazin-3-yl]-2-methylbenzamide]", "IC50": 0.1}
{"smiles": "Cc1cc(-c2cnc3c(NCc4cc[nH]n4)cc(Oc4cccc(F)c4)nn23)ccc1C(=O)NC1CC1", "note": "[Example 489, N-cyclopropyl-4-{6-(3-fluoro-phenoxy)-8-[(1H-pyrazol-3-ylmethyl)amino]imidazo [1,2-b]pyridazin-3-yl}-2-methylbenzamide]", "IC50": 0.2}
{"smiles": "Cc1cc(-c2cnc3c(NCC4(CO)COC4)cc(Oc4cccc(F)c4)nn23)ccc1C(=O)NC1CC1", "note": "[Example 490, N-cyclopropyl-4-[6-(3-fluoro-phenoxy)-8-({[3-(hydroxymethyl)oxetan-3-yl]methyl}amino)imidazo[1,2-b]pyridazin-3-yl]-2-methylbenzamide]", "IC50": 1.5}
{"smiles": "Cc1cc(-c2cnc3c(NCC(O)CO)cc(Oc4cccc(F)c4)nn23)ccc1C(=O)NC1CC1", "note": "(centres unmarked) [Example 491, N-cyclopropyl-4-{8-[(2,3-dihydroxypropyl)amino]-6-(3-fluorophenoxy)imidazo [1,2-b]pyridazin-3-yl}-2-methylbenzamide]", "IC50": 0.1}
{"smiles": "Cc1cc(-c2cnc3c(NCCC(=O)N(C)C)cc(Oc4cccc(F)c4)nn23)ccc1C(=O)NC1CC1", "note": "[Example 493, N-cyclopropyl-4-[8-{[3-(dimethyl-amino)-3-oxopropyl]amino}-6-(3-fluorophenoxy)imidazo[1,2-b]pyridazin-3-yl]-2-methyl-benzamide]", "IC50": 0.3}
{"smiles": "Cc1cc(-c2cnc3c(NCC4CCC(F)(F)CC4)cc(Oc4cccc(F)c4)nn23)ccc1C(=O)NC1CC1", "note": "[Example 494, N-cyclopropyl-4-[8-{[(4,4-difluorocyclohexyl)methyl]amino}-6-(3-fluorophenoxy)imidazo[1,2-b]pyridazin-3-yl]-2-methylbenzamide]", "IC50": 0.3}
{"smiles": "Cc1cc(-c2cnc3c(NCC4COC4)cc(Oc4cccc(F)c4)nn23)ccc1C(=O)NC1CC1", "note": "[Example 495, N-cyclopropyl-4-{6-(3-fluoro-phenoxy)-8-[(oxetan-3-ylmethyl)amino]imidazo[1,2-b]pyridazin-3-yl}-2-methylbenzamide]", "IC50": 0.1}
{"smiles": "Cc1cc(-c2cnc3c(NCc4nnn[nH]4)cc(Oc4cccc(F)c4)nn23)ccc1C(=O)NC1CC1", "note": "[Example 496, N-cyclopropyl-4-{6-(3-fluoro-phenoxy)-8-[(1H-tetrazol-5-ylmethyl)amino]imidazo[1,2-b]pyridazin-3-yl}-2-methylbenzamide]", "IC50": 8.9}
